# Assay results as given in US20250098679A1, “HERBICIDAL PYRIDONE DERIVATIVES” (SYNGENTA CROP PROTECTION AG, priority 2021, published 2025).
# Tests used:
# Assay type in all cases: in vivo
# [1] = tested on: Amaranthus retoflexus (AMARE); assay: Post-emergence Test, Amaranthus retoflexus (AMARE); design: key to percentage damage caused to the plant, AMARE (five-point scale): 5=81-100%, 4=61-80%, 3=41-60%, 2=21-40%, 1=0-20% damage; details: evaluated after 13 days
# Experimental: (§1) Seeds of a variety of test species are sown in standard soil in pots (Setaria faberi (SETFA), Echinochloa crus-galli (ECHCG), Zea mays (ZEAMX), Ipomoea hederacea (IPOHE), Amaranthus palmeri (AMAPA), Amaranthus retoflexus (AMARE)). After 8 days cultivation under controlled conditions in a glasshouse (at 24° C./16° C., day/night; 14 hours light; 65% humidity), the plants are sprayed with an aqueous spray solution derived from the formulation of the technical active ingredient in acetone/water (50:50) solution containing 0.5% Tween 20 (polyoxyethelyene sorbitan monolaurate, CAS RN 9005-64-5). Compounds are applied at 1000 g/ha unless otherwise stated. The test plants are then grown in a glasshouse under controlled conditions in a glasshouse (at 24° C./16° C., day/night; 14 hours light; 65% humidity) and watered twice daily. After 13 days the test is evaluated for the percentage damage caused to the plant. The biological activities are shown in the following table on a five-point scale (5=81-100%; 4=61-80%; 3=41-60%; 2=21-40%; 1=0-20%; -=not tested).
# Setaria faberi (SETFA) = assay: Post-emergence Test, Setaria faberi (SETFA); design: key to percentage damage caused to the plant, SETFA (five-point scale): 5=81-100%, 4=61-80%, 3=41-60%, 2=21-40%, 1=0-20% damage; details: evaluated after 13 days
# Experimental: as §1
# Zea mays (ZEAMX) = assay: Post-emergence Test, Zea mays (ZEAMX); design: key to percentage damage caused to the plant, ZEAMX (five-point scale): 5=81-100%, 4=61-80%, 3=41-60%, 2=21-40%, 1=0-20% damage; details: evaluated after 13 days
# Experimental: as §1
# [2] = tested on: Echinochloa crus-galli (ECHCG); assay: Post-emergence Test, Echinochloa crus-galli (ECHCG); design: key to percentage damage caused to the plant, ECHCG (five-point scale): 5=81-100%, 4=61-80%, 3=41-60%, 2=21-40%, 1=0-20% damage; details: evaluated after 13 days; for Post-emergence Test ECHCG, percentage damage caused to the plant (five-point scale): 250 g/Ha (*)
# Experimental: as §1
# [3] = tested on: Amaranthus palmeri (AMAPA); assay: Post-emergence Test, Amaranthus palmeri (AMAPA); design: key: 5=81-100%, 4=61-80%, 3=41-60%, 2=21-40%, 1=0-20% damage; details: evaluated after 13 days
# Experimental: as §1
# [4] = tested on: Ipomoea hederacea (IPOHE); assay: Post-emergence Test, Ipomoea hederacea (IPOHE); design: key to percentage damage caused to the plant, IPOHE (five-point scale): 5=81-100%, 4=61-80%, 3=41-60%, 2=21-40%, 1=0-20% damage; details: evaluated after 13 days
# Experimental: as §1
Compound,"percentage damage caused to the plant, AMARE (five-point scale) ([1]; 1000 g/ha)","percentage damage caused to the plant, SETFA (five-point scale) (Setaria faberi (SETFA); 1000 g/ha)","percentage damage caused to the plant, ZEAMX (five-point scale) (Zea mays (ZEAMX); 1000 g/ha)","percentage damage caused to the plant, ECHCG (five-point scale) ([2]; 1000 g/ha)","percentage damage caused to the plant, AMAPA (five-point scale) ([3]; 1000 g/ha)","percentage damage caused to the plant, IPOHE (five-point scale) ([4]; 1000 g/ha)","percentage damage caused to the plant, AMARE (five-point scale) ([1]; 250 g/Ha)","percentage damage caused to the plant, SETFA (five-point scale) (Setaria faberi (SETFA); 250 g/Ha)","percentage damage caused to the plant, ZEAMX (five-point scale) (Zea mays (ZEAMX); 250 g/Ha)","percentage damage caused to the plant, ECHCG (five-point scale) ([2]; 250 g/Ha)","percentage damage caused to the plant, AMAPA (five-point scale) ([3]; 250 g/Ha)","percentage damage caused to the plant, IPOHE (five-point scale) ([4]; 250 g/Ha)",also measured
"CCn1c(Cn2cnc(F)c2)cc(=O)c(C(=O)O)c1-c1ccc(Cl)c(Cl)c1 [Compound 77, 2-(3,4-dichlorophenyl)-1-ethyl-6-[(4-fluoroimidazol-1-yl)methyl]-4-oxo-pyridine-3-carboxylic acid]",1 (1=0-20%),0,1 (1=0-20%),1 (1=0-20%),1 (1=0-20%),0,–,–,–,–,–,–,–
"C/C=C/C(=O)Nc1ccn(Cc2cc(=O)c(C(=O)O)c(-c3ccc(Cl)c(Cl)c3)n2CC)n1 [Compound 155, 6-[[3-[[(E)-but-2-enoyl]amino]pyrazol-1-yl]methyl]-2-(3,4-dichlorophenyl)-1-ethyl-4-oxo-pyridine-3-carboxylic acid]",0,0,0,1 (1=0-20%),1 (1=0-20%),0,1 (1=0-20%),1 (1=0-20%),0,1 (1=0-20%),1 (1=0-20%),1 (1=0-20%),–
"CCOC(=O)c1c(-c2ccc(Cl)c(Cl)c2)n(CC)c(Cn2cnc([N+](=O)[O-])n2)cc1=O [Compound 43, ethyl 2-(3,4-dichlorophenyl)-1-ethyl-6-[(3-nitro-1,2,4-triazol-1-yl)methyl]-4-oxo-pyridine-3-carboxylate]",0,1 (1=0-20%),1 (1=0-20%),1 (1=0-20%),1 (1=0-20%),0,1 (1=0-20%),0,0,1 (1=0-20%),1 (1=0-20%),0,–
"CCn1c(Cn2ccc(-c3ccc(C)cc3)n2)cc(=O)c(C(=O)O)c1-c1ccc(Cl)c(Cl)c1 [Compound 196, 2-(3,4-dichlorophenyl)-1-ethyl-4-oxo-6-[[3-(p-tolyl)pyrazol-1-yl]methyl]pyridine-3-carboxylic acid]",–,–,–,–,–,–,–,–,–,–,–,–,"Post-emergence Test AMARE, percentage damage caused to the plant (five-point scale) ([1]; 250 g/Ha (*)): 0; Post-emergence Test AMARE, percentage damage caused to the plant (five-point scale) ([1]; 1000 g/ha): 0; Post-emergence Test SETFA, percentage damage caused to the plant (five-point scale) (Setaria faberi (SETFA); 1000 g/ha): 0; Post-emergence Test ZEAMX, percentage damage caused to the plant (five-point scale) (Zea mays (ZEAMX); 250 g/Ha (*)): 0; Post-emergence Test ZEAMX, percentage damage caused to the plant (five-point scale) (Zea mays (ZEAMX); 1000 g/ha): 1 (1=0-20%); Post-emergence Test ECHCG, percentage damage caused to the plant (five-point scale) [2]: 1 (1=0-20%); Post-emergence Test AMAPA, percentage damage caused to the plant (five-point scale) ([3]; 250 g/Ha (*)): 0; Post-emergence Test AMAPA, percentage damage caused to the plant (five-point scale) ([3]; 1000 g/ha): 0; Post-emergence Test IPOHE, percentage damage caused to the plant (five-point scale) ([4]; 250 g/Ha (*)): 0; Post-emergence Test IPOHE, percentage damage caused to the plant (five-point scale) ([4]; 1000 g/ha): 0"
"CCOC(=O)c1c(-c2ccc(Cl)c(Cl)c2)n(CC)c(Cn2nccn2)cc1=O [Compound 58, ethyl 2-(3,4-dichlorophenyl)-1-ethyl-4-oxo-6-(triazol-2-ylmethyl)pyridine-3-carboxylate]",1 (1=0-20%),1 (1=0-20%),0,1 (1=0-20%),0,0,–,–,–,–,–,–,–
"CCn1c(Cn2ccc(-c3ccncc3)n2)cc(=O)c(C(=O)O)c1-c1ccc(Cl)c(Cl)c1 [Compound 195, 2-(3,4-dichlorophenyl)-1-ethyl-4-oxo-6-[[3-(4-pyridyl)pyrazol-1-yl]methyl]pyridine-3-carboxylic acid]",–,–,–,–,–,–,–,–,–,–,–,–,"Post-emergence Test AMARE, percentage damage caused to the plant (five-point scale) ([1]; 250 g/Ha (*)): 0; Post-emergence Test AMARE, percentage damage caused to the plant (five-point scale) ([1]; 1000 g/ha): 1 (1=0-20%); Post-emergence Test SETFA, percentage damage caused to the plant (five-point scale) (Setaria faberi (SETFA); 1000 g/ha): 2 (2=21-40%); Post-emergence Test ZEAMX, percentage damage caused to the plant (five-point scale) (Zea mays (ZEAMX); 250 g/Ha (*)): 0; Post-emergence Test ZEAMX, percentage damage caused to the plant (five-point scale) (Zea mays (ZEAMX); 1000 g/ha): 1 (1=0-20%); Post-emergence Test ECHCG, percentage damage caused to the plant (five-point scale) [2]: 1 (1=0-20%); Post-emergence Test AMAPA, percentage damage caused to the plant (five-point scale) ([3]; 250 g/Ha (*)): 0; Post-emergence Test AMAPA, percentage damage caused to the plant (five-point scale) ([3]; 1000 g/ha): 0; Post-emergence Test IPOHE, percentage damage caused to the plant (five-point scale) ([4]; 250 g/Ha (*)): 0; Post-emergence Test IPOHE, percentage damage caused to the plant (five-point scale) ([4]; 1000 g/ha): 1 (1=0-20%)"
"CCn1c(Cn2cc3cc(Cl)ccc3n2)cc(=O)c(C(=O)O)c1-c1ccc(Cl)c(Cl)c1 [Compound 99, 6-[(5-chloroindazol-2-yl)methyl]-2-(3,4-dichlorophenyl)-1-ethyl-4-oxo-pyridine-3-carboxylic acid]",0,0,1 (1=0-20%),0,0,1 (1=0-20%),0,0,0,1 (1=0-20%),0,0,–
"CCn1c(C(C)n2ccc(C(F)(F)F)n2)cc(=O)c(C(=O)O)c1-c1ccc(Cl)c(Cl)c1 (stereo not drawn) [Compound 172, 2-(3,4-dichlorophenyl)-1-ethyl-4-oxo-6-[1-[3-(trifluoromethyl)pyrazol-1-yl]ethyl]pyridine-3-carboxylic acid]",2 (2=21-40%),1 (1=0-20%),1 (1=0-20%),–,2 (2=21-40%),1 (1=0-20%),1 (1=0-20%),–,0,0,1 (1=0-20%),0,–
"CCn1c(Cn2ccnc2C2CC2)cc(=O)c(C(=O)O)c1-c1ccc(Cl)c(Cl)c1 [Compound 95, 6-[(2-cyclopropylimidazol-1-yl)methyl]-2-(3,4-dichlorophenyl)-1-ethyl-4-oxo-pyridine-3-carboxylic acid]",0,1 (1=0-20%),1 (1=0-20%),1 (1=0-20%),1 (1=0-20%),1 (1=0-20%),–,–,–,–,–,–,–
"CCc1ncnn1Cc1cc(=O)c(C(=O)O)c(-c2ccc(Cl)c(Cl)c2)n1CC [Compound 70, 2-(3,4-dichlorophenyl)-1-ethyl-6-[(5-ethyl-1,2,4-triazol-1-yl)methyl]-4-oxo-pyridine-3-carboxylic acid]",1 (1=0-20%),2 (2=21-40%),0,1 (1=0-20%),1 (1=0-20%),1 (1=0-20%),–,–,–,–,–,–,–
